Measured values as given in US4576946A, “Derivatives of 4-methyl 6-phenyl pyridazine active on the central nervous system” (Sanofi, priority 1981, dated 1986).
Structures can show the parent of a compound that is named as a salt.

Experiments:
[1] = Acute toxicity (LD50, 24 hours, intraperitoneal); details: mouse, in vivo, ip
Experimental: (§1) The products to be studied were administered by the intraperitoneal route in increasing doses to batches of 10 mice. The mortality provoked by the products studied was noted during the 24 hours following administration of the product.
From the results obtained, the lethal dose 50, i.e. the dose provoking the death of 50% of the animals studied, is determined for each of the products studied.

[2] = tested on: mice; test: Convulsivant threshold dose (same experiments as acute toxicity); assay type: in vivo, mouse
Experimental: as §1
During the same experiments, the convulsivant threshold dose of the product is also noted, i.e. the minimum dose for which a convulsivant activity begins to show.

[3] = tested on: ptosis induced by reserpine; test: Antagonism of the ptosis induced by reserpine; assay type: in vivo, female mouse CDI (Charles River); details: reserpine 2 mg/kg i.v., 1 hour; for ED50: Mus musculus, ip
Experimental: This test, described by GOURET (Journal de Pharmacologie (Paris), 1973, 4(1), 105-128), was carried out on the female mouse CDI (Charles River) weighing 20±1 g. The reserpine provokes a ptosis one hour after intravenous administration thereof; certain antidepressants oppose this ptosis.
The substances to be studied were administered by the i.p. route. The reserpine is administered simultaneously by the intravenous route at the dose of 2 mg/kg. One hour after administration of the reserpine, the number of animals not presenting ptosis is noted.
This test was carried out on batches of 10 mice, the results are expressed in percentage of animals not presenting ptosis and are the average of at least two experiments.

[4] = tested on: striatal dopaminergic receptors; test: Dopaminomimetic activity (rotations after unilateral lesion of nigrostriatal dopaminergic neurones); assay type: in vivo, mouse; details: 5.3 μmoles/kg i.p.
Source text: The dopaminomimetic activity of the products of the invention was studied on the striatal dopaminergic receptors of the mouse according to the technique described by P. PROTAIS and J. COSTENTIN, Journal de Pharmacologie (Paris), 7, 251-255 (1976).
The unilateral lesion of the nigrostriatal dopaminergic neurones induces a hypersensitivity of the receptors of the dopamine at the level of the striatum.
After administration of the products to be studied by the intraperitoneal route, the number of rotations made by the animal is counted for a period of 2 minutes.
The results are expressed in the form of percentage of the variations with respect to the controls not having received the product to be studied.

[5] = tested on: despair reaction (duration of immobilisation); test: Despair reaction ("Behavioral Despair"); assay type: in vivo, female mouse, CDI (Charles River); details: 10 mg/kg i.p., 1 hour before test; immobile time between 2nd and 6th minute
Experimental: This test was carried out on the female mouse, CDI (Charles River), weighing 18 to 23 g, according to the method described by Porsolt (Archives Internationales de Pharmacodynamie, 1977, 229, 327-336). The principle of this test is as follows: when a mouse is placed in a narrow recipient filled with water, it struggles, then, after 2 to 4 mins., it becomes still and floats on its stomach, its back rounded, its rear paws drawn up under its body and it makes only a few movements necessary for holding its head out of the water. This is the so-called despair reaction. Certain psychotherapeutic agents, particularly antidepressants, extend the time during which the mouse struggles. The products to be studied were administered by the i.p. route 1 hour before the test. For the test, the animals are placed in a narrow recipient (10×10×10 cm) filled with water up to a height of 6 cm, the temperature of the water being 24° C.±2° C. The animals are left 6 minutes in the water and the time when the animal remains immobile between the 2nd and the 6th minute is measured--the shorter this time, the more the substance is active. Each substance was studied on a batch of 10 mice. The results are the average of at least two experiments.

[6] = cited from earlier work
[7] = mice, mortality during 24 hours

Row | SMILES | LD50 at 24 h [1, 7] [mg/kg] | Average number of ipsilateral rotations in 2 minutes, % with respect to controls [4] [%] | LD50 at 24 h [1] [mg/kg] | Convulsivant threshold dose ([2]; mouse, in vivo, ip) [mg/kg] | ED50 [3] [mg/kg] | further results
1 | COc1ccc(-c2cc(C)c(NCCN3CCOCC3)nn2)cc1 [CM 30073, reference compound] | 19 | 0 | – | – | – | Convulsivant threshold dose ([2]; i.p., mice, minimum dose for which a convulsivant activity begins to show): 5 mg/kg; Antagonism of the ptosis induced by reserpine (percentage of animals not presenting ptosis) ([3]; 1 mg/kg i.p.): 30%; Antagonism of the ptosis induced by reserpine (percentage of animals not presenting ptosis) ([3]; 5 mg/kg i.p.): 60%
2 | Cc1cc(-c2ccccc2)nnc1NCCNCCO [CM 30311, 3-[2-(2-HYDROXY ETHYLAMINO)ETHYLAMINO]4-METHYL 6-PHENYL PYRIDAZINE, DIHYDROCHLORIDE] | – | -146 | > 200 | 200 | – | –
3 | Br.Br.Cc1cc(-c2ccc(O)cc2)nnc1NCCN1CCOCC1 [CM 30366, 3-(2-MORPHOLINO ETHYLAMINO)4-METHYL 6-(4-HYDROXY PHENYL)PYRIDAZINE DIHYDROBROMIDE] | – | -111 | > 200 | 200 | 12 | "Behavioral Despair" % of reduction of the duration of immobilisation [5]: -31%
4 | Cc1cc(-c2ccccc2)nnc1N [CM 30465, 3-AMINO 4-METHYL 6-PHENYL PYRIDAZINE(HYDROCHLORIDE)] | – | -89 | 226 | 200 | 8.6 | "Behavioral Despair" % of reduction of the duration of immobilisation [5]: -24%
5 | Cc1cc(-c2ccccc2)nnc1NCCN1CCOCC1=O [CM 30488, 3-[2-(3-OXO 4-MORPHOLINYL)ETHYLAMINO]4-METHYL 6-PHENYL PYRIDAZINE, HYDROCHLORIDE] | – | -90 | > 300 | 300 | 20 | –
6 | Cc1cc(-c2ccccc2)nnc1NCCN1CCOC(=O)C1 [CM 30489, 3-[2-(2-OXO 4-MORPHOLINYL)ETHYLAMINO]4-METHYL 6-PHENYL PYRIDAZINE, DIHYDROCHLORIDE] | – | -97 | – | – | – | –
7 | Cc1cc(-c2ccccc2)nnc1NCCN1CCOCC1 [Minaprine, reference compound] | – | -91 | – | 35 | 5 | "Behavioral Despair" % of reduction of the duration of immobilisation [5]: -35%; type of psychotherapeutic action ([6]; in vivo): "disinhibitory" activity; dose above which convulsivant ([6]; per os): higher than 100 mg/kg
8 | Cc1cc(-c2ccccc2)nnc1NCC[N+]1([O-])CCOCC1 [SR 30490, N-OXIDE of 3-(2-MORPHOLINO ETHYLAMINO 4-METHYL 6-PHENYL PYRIDAZINE] | – | – | > 200 | 300 | ~50 | –
9 | Cc1cc(-c2ccccc2O)nnc1NCCN1CCOCC1 [SR 95070, 3-(2-morpholinoethylamino)4-methyl 6-(2-hydroxyphenyl)pyridazine] | > 200 | -89 | – | 200 | – | –
10 | Cc1cc(-c2cccc(O)c2)nnc1NCCN1CCOCC1 [SR 95082, 3-(2-morpholinoethylamino)4-methyl 6-(3-hydroxyphenyl)pyridazine] | > 200 | – | – | > 200 | – | –
11 | CCN(CCO)CCNc1nnc(-c2ccccc2)cc1C [SR 95084, 3-{2-[N-ethyl(2-hydroxyethylamino)]ethylamino}4-methyl 6-phenyl pyridazine] | 100 to 200 | – | – | 200 | – | –
12 | Cc1cc(-c2ccc(O)cc2)nnc1N [SR 95087, 3-amino 4-methyl 6-(4-hydroxyphenyl)pyridazine] | > 200 | – | – | > 200 | – | –
